In ChEMBL document CHEMBL1641586, “Stereospecific synthesis and structure-activity relationships of unsymmetrical 4,4-diphenylbut-3-enyl derivatives of nipecotic acid as GAT-1 inhibitors” (Bioorg Med Chem Lett, 2011):

Legend:
[1] = biological target: Sodium- and chloride-dependent GABA transporter 1 (Homo sapiens, UniProt P30531); assay: Displacement of [3H]Tiagabine from human recombinant GAT1 expressed in HEK293 cells by equilibrium binding assay; assay type: cell-based
Cytochrome P450 1A2 = biological target: T1, Cytochrome P450 1A2 (Homo sapiens, UniProt P05177); assay: Inhibition of CYP1A2; assay type: ADME
T1 sequence (P05177 whole entry): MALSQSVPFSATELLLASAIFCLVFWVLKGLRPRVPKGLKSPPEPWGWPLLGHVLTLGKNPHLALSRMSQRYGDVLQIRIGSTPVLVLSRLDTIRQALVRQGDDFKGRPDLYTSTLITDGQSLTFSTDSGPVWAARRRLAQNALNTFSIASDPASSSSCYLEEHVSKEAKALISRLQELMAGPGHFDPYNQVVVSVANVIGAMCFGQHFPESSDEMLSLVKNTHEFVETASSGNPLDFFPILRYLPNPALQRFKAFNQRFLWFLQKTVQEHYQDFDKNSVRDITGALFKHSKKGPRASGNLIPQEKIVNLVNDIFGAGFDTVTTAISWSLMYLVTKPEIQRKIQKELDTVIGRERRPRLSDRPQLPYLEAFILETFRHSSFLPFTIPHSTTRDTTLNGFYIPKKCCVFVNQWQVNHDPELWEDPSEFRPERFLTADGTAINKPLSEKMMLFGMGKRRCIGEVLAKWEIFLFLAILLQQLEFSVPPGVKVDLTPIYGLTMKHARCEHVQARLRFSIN

Cytochrome P450 2C9 = Cytochrome P450 2C9 (Homo sapiens, UniProt P11712); assay: Inhibition of CYP2C9; assay type: ADME
Sequence of Cytochrome P450 2C9 (P11712 whole entry): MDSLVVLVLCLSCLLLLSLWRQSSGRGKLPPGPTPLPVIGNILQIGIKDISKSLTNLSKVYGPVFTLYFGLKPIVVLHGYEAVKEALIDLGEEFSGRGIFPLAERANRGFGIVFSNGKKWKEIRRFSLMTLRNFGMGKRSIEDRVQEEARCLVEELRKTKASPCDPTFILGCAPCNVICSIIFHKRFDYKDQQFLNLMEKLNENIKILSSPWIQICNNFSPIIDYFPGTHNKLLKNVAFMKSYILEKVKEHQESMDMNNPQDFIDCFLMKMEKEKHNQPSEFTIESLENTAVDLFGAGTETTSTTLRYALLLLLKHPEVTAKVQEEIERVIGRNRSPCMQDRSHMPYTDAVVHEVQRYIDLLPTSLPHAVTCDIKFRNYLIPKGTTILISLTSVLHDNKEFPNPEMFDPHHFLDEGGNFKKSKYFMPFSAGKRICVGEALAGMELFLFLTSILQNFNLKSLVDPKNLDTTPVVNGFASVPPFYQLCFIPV

[2] = biological target: T2, Sodium- and chloride-dependent betaine transporter (Homo sapiens, UniProt P48065); assay: Inhibition of BGT1
T2 sequence (P48065 whole entry): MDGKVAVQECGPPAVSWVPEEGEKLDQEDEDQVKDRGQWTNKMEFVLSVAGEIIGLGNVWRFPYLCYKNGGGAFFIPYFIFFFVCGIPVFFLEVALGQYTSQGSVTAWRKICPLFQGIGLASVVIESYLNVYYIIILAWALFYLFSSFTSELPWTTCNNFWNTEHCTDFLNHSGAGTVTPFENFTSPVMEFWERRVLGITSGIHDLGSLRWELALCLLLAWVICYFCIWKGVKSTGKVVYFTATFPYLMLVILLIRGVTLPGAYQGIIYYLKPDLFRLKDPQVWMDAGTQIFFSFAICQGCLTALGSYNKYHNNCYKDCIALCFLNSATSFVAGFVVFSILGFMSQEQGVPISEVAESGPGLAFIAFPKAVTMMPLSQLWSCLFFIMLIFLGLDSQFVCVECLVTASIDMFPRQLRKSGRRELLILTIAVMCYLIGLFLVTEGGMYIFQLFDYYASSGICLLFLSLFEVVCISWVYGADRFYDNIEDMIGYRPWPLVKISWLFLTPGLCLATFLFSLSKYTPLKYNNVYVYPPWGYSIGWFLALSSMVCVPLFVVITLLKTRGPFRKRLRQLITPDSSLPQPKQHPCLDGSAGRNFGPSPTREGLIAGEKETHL

[3] = biological target: T3, Sodium- and chloride-dependent GABA transporter 2 (Homo sapiens, UniProt Q9NSD5); assay: Inhibition of GAT2
T3 sequence (Q9NSD5 whole entry): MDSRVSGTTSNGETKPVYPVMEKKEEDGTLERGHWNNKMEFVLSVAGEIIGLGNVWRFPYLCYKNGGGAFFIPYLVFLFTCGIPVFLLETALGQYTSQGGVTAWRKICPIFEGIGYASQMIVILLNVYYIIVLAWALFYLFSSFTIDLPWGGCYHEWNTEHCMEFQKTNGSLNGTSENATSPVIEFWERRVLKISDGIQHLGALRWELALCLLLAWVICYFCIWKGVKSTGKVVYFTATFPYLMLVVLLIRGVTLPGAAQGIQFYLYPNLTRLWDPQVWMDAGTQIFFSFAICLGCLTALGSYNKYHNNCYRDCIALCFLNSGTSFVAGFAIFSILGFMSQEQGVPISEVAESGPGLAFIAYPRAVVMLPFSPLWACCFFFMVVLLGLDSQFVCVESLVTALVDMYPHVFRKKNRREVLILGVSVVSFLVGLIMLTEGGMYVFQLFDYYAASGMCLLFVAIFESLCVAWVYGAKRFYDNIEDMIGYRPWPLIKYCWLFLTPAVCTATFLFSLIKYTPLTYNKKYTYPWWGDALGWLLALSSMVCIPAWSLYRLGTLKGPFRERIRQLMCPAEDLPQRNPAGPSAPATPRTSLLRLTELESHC

[4] = biological target: T4, Sodium- and chloride-dependent GABA transporter 3 (Homo sapiens, UniProt P48066); assay: Inhibition of GAT3
T4 sequence (P48066 whole entry): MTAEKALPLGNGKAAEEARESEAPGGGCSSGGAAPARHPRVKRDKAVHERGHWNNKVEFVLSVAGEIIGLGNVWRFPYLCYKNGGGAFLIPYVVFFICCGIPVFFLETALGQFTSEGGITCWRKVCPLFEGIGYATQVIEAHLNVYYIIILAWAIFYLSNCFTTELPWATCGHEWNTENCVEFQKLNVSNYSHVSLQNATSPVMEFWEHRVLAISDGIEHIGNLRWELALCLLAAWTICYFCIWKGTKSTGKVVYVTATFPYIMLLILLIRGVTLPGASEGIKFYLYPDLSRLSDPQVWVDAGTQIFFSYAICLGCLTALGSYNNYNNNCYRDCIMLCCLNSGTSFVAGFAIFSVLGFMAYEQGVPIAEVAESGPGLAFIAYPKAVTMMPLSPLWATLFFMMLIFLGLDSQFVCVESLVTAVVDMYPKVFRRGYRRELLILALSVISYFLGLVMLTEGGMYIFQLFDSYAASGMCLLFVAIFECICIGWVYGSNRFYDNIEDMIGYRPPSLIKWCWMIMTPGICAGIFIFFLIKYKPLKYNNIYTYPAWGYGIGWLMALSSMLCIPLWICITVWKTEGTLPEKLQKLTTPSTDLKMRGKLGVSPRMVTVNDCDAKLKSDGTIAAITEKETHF

Cytochrome P450 2C19 = Cytochrome P450 2C19 (Homo sapiens, UniProt P33261); assay: Inhibition of CYP2C19; assay type: ADME
Sequence of Cytochrome P450 2C19 (P33261 whole entry): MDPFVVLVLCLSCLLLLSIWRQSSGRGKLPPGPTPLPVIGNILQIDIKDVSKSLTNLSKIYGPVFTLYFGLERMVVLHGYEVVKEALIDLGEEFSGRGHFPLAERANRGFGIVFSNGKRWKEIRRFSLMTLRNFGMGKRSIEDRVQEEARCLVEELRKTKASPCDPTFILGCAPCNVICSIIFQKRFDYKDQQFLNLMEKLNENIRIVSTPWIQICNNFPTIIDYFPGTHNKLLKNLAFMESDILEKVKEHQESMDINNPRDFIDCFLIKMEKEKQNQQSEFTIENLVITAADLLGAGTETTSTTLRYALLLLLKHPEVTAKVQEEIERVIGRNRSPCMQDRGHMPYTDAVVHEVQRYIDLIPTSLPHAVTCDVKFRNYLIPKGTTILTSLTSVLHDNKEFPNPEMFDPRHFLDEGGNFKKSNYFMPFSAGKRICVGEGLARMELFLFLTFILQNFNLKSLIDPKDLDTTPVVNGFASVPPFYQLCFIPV

Cytochrome P450 3A4 = Cytochrome P450 3A4 (Homo sapiens, UniProt P08684); assay: Inhibition of CYP3A4; assay type: ADME
Sequence of Cytochrome P450 3A4 (P08684 whole entry): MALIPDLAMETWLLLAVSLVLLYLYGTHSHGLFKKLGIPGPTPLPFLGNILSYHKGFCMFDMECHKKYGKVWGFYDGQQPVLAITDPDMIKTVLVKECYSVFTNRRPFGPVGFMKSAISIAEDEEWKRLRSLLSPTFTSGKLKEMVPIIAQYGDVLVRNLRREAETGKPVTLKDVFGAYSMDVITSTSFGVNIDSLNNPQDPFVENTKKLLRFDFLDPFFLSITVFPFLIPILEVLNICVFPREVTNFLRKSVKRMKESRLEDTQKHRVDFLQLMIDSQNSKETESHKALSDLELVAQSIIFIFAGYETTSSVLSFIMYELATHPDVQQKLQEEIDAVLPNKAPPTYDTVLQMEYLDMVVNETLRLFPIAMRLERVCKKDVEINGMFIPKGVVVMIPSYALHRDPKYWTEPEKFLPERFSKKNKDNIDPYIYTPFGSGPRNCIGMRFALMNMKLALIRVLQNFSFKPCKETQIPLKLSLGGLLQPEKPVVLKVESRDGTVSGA

Sequence of Sodium- and chloride-dependent GABA transporter 1 (P30531 whole entry): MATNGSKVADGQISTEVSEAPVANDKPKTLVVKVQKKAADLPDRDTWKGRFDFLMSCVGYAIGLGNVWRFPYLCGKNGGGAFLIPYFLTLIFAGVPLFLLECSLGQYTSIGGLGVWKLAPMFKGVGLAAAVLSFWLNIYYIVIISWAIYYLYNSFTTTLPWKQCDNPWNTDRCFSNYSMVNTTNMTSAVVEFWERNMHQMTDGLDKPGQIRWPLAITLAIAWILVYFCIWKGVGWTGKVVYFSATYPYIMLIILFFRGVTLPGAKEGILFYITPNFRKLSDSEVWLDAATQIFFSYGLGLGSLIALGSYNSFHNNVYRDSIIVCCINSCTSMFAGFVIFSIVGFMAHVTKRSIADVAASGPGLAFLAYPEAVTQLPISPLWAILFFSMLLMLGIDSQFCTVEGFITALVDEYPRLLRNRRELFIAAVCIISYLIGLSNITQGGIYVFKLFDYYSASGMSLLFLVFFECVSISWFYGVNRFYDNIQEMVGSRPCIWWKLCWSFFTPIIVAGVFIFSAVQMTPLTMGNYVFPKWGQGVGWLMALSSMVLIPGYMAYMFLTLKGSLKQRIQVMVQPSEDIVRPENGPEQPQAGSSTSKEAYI

Ki [1] [µM]	SMILES	other results
0.0389	Cc1cc(F)ccc1/C(=C\CCN1CCC[C@@H](C(=O)O)C1)c1ccccc1C(F)(F)F	–
1.91	O=C(O)[C@@H]1CCCN(CC/C=C(\c2ccccc2)c2ccccc2C(F)(F)F)C1	–
0.372	O=C(O)[C@@H]1CCCN(CC/C=C(\c2ccccc2)c2ccccc2F)C1	–
0.2	O=C(O)[C@@H]1CCCN(CC/C=C(\c2ccccc2)c2ccccc2Br)C1	–
0.331	O=C(O)[C@@H]1CCCN(CC/C=C(/c2ccccc2)c2c(F)cccc2F)C1	–
0.166	O=C(O)[C@@H]1CCCN(CC/C=C(\c2ccccc2)c2ccccc2Cl)C1	–
0.692	O=C(O)[C@@H]1CCCN(CC/C=C(\c2ccccc2)c2c(F)cccc2F)C1	–
0.0191	Cc1cc(F)ccc1/C(=C\CCN1CCC[C@@H](C(=O)O)C1)c1ccccc1F	–
0.0295	CCc1ccccc1/C(=C\CCN1CCC[C@@H](C(=O)O)C1)c1ccccc1	–
2.75	CC(=O)[C@@H]1CC[C@H]2CC[C@@H]1N2CCC=C(c1ccccc1)c1ccccc1	–
0.0219	O=C(O)[C@@H]1CCCN(CC/C=C(/c2ccccc2F)c2ccccc2Br)C1	–
> 10	Cc1ccc(C(=CCCN2CC[C@H]3[C@@H](C2)[C@@H]3C(=O)O)c2ccc(C)s2)s1	–
0.0537	COc1ccccc1/C(=C\CCN1CCC[C@@H](C(=O)O)C1)c1ccccc1F	–
0.38	Cc1ccccc1/C(=C\CCN1CCC[C@@H](C(=O)O)C1)c1ccccc1C(F)(F)F	–
0.0148	Cc1ccccc1/C(=C\CCN1CCC[C@@H](C(=O)O)C1)c1ccccc1F	IC50 (Cytochrome P450 1A2): > 10 µM; IC50 (Cytochrome P450 2C9): > 10 µM; IC50 [2]: > 100 µM; IC50 [3]: > 100 µM; IC50 [4]: > 100 µM; IC50 (Cytochrome P450 2C19): > 10 µM; IC50 (Cytochrome P450 3A4): > 10 µM
0.0891	CCc1ccccc1/C(=C/CCN1CCC[C@@H](C(=O)O)C1)c1ccccc1F	–
0.0724	Cc1ccccc1/C(=C/CCN1CCC[C@@H](C(=O)O)C1)c1ccccc1F	–
0.355	O=C(O)[C@@H]1CCCN(CC/C=C(\c2ccccc2F)c2ccccc2C(F)(F)F)C1	–
> 10	Cc1ccc(C(=CCCN2C[C@@H]3[C@H](C2)[C@@H]3C(=O)O)c2ccc(C)s2)s1	–
0.0692	O=C(O)[C@@H]1CCCN(CC/C=C(/c2ccccc2)c2ccccc2F)C1	–
0.0776	Cc1cccc(C)c1/C(=C\CCN1CCC[C@@H](C(=O)O)C1)c1ccccc1	–
0.0525	O=C(O)[C@@H]1CCCN(CC/C=C(/c2ccccc2F)c2ccccc2OC(F)(F)F)C1	–
0.832	O=C(O)C1(F)CCCN(CCC=C(c2ccccc2)c2ccccc2)C1 (configuration not stated)	–
0.0562	COc1ccccc1/C(=C\CCN1CCC[C@@H](C(=O)O)C1)c1ccccc1	–
0.158	O=C(O)[C@@H]1CCCN(CC/C=C(\c2ccccc2F)c2ccccc2Cl)C1	–

Ki [1] [µM]	SMILES	other results
> 10	Cc1ccc(C(=CCCN(C)[C@H]2CCC[C@@H]2C(=O)O)c2ccc(C)s2)s1	–
1.07	O=C(O)[C@@H]1CCCN(CC/C=C(/c2ccccc2)c2ccccc2-c2ccccc2)C1	–
0.038	CCc1ccccc1/C(=C\CCN1CCC[C@@H](C(=O)O)C1)c1ccccc1F	–
0.0933	Cc1ccccc1/C(=C/CCN1CCC[C@@H](C(=O)O)C1)c1ccccc1	–
0.0933	O=C(O)[C@@H]1CCCN(CC/C=C(/c2ccccc2)c2ccccc2C(F)(F)F)C1	–
0.102	CCc1ccccc1/C(=C/CCN1CCC[C@@H](C(=O)O)C1)c1ccccc1	–
0.0288	O=C(O)[C@@H]1CCCN(CC/C=C(/c2ccccc2)c2ccccc2Br)C1	–
> 10	Cc1ccc(C(=CCCN2CC[C@@H]3[C@H](C2)[C@@H]3C(=O)O)c2ccc(C)s2)s1	–
0.0417	Cc1ccccc1C(=CCCN1CCC[C@@H](C(=O)O)C1)c1ccccc1C	–
0.646	O=C(O)[C@@H]1CCCN(CC/C=C(\c2ccccc2)c2ccccc2OC(F)(F)F)C1	–
0.0182	O=C(O)[C@@H]1CCCN(CC/C=C(/c2ccccc2F)c2ccccc2Cl)C1	–
0.38	Cc1cc(F)ccc1/C(=C/CCN1CCC[C@@H](C(=O)O)C1)c1ccccc1	–
0.0617	Cc1ccccc1/C(=C\CCN1CCC[C@@H](C(=O)O)C1)c1ccccc1Cl	–
0.0204	Cc1ccccc1/C(=C\CCN1CCC[C@@H](C(=O)O)C1)c1ccccc1	–
0.0407	O=C(O)[C@@H]1CCCN(CC/C=C(/c2ccccc2)c2ccccc2Cl)C1	–
> 10	Cc1ccc(C(=CCCN2C[C@@H]3[C@H](C2)[C@H]3C(=O)O)c2ccc(C)s2)s1	–
0.676	O=C(O)[C@@H]1CCCN(CC/C=C(\c2ccccc2)c2ccccc2-c2ccccc2)C1	–
0.372	COc1ccccc1/C(=C/CCN1CCC[C@@H](C(=O)O)C1)c1ccccc1	–
0.0339	Cc1cc(F)ccc1/C(=C\CCN1CCC[C@@H](C(=O)O)C1)c1ccccc1	–
> 10	Cc1ccc(C(=CCCN(C)[C@H]2CCCC[C@@H]2C(=O)O)c2ccc(C)s2)s1	–
0.0708	COc1ccccc1/C(=C/CCN1CCC[C@@H](C(=O)O)C1)c1ccccc1C	–
> 10	Cc1ccc(C(=CCCN2CCOC(C(=O)O)C2)c2ccc(C)s2)s1 (configuration not stated)	–
0.0468	O=C(O)[C@@H]1CCCN(CCC=C(c2ccccc2F)c2ccccc2F)C1	–
0.138	Cc1ccc(C(=CCCN2CCCC(F)(C(=O)O)C2)c2ccc(C)s2)s1 (configuration not stated)	–
0.0589	O=C(O)[C@@H]1CCCN(CC/C=C(/c2ccccc2)c2ccccc2OC(F)(F)F)C1	–
